From ChEMBL document CHEMBL1795286, “A concise synthesis and antimicrobial activities of 3-polyamino-23,24-bisnorcholanes as steroid-polyamine conjugates” (2011)

Key:
Bacillus licheniformis = experiment: Antimicrobial activity against Bacillus licheniformis EMR after 18 hrs by twofold agar dilution method; format: functional
Micrococcus luteus = experiment: Antimicrobial activity against Micrococcus luteus ATCC 9341 after 18 hrs by twofold agar dilution method; format: functional; settings: ATCC 9341, 18 h, read-out: MIC
Klebsiella aerogenes = experiment: Antimicrobial activity against Klebsiella aerogenes harboring beta-lactamase SHV-1 1976E mutant after 18 hrs by twofold agar dilution method; format: functional
Enterobacter cloacae [1] = experiment: Antimicrobial activity against Enterobacter cloacae P99 after 18 hrs by twofold agar dilution method; format: functional; settings: P99, 18 h
Bacillus subtilis = experiment: Antimicrobial activity against Bacillus subtilis ATCC 6633 after 18 hrs by twofold agar dilution method; format: functional; settings: ATCC 6633, 18 h
Moraxella catarrhalis [2] = experiment: Antimicrobial activity against Moraxella catarrhalis 25240 after 18 hrs by twofold agar dilution method; format: functional; settings: Moraxella catarrhalis, 25240, 18 h
Moraxella catarrhalis [3] = experiment: Antimicrobial activity against Moraxella catarrhalis C2431 after 18 hrs by twofold agar dilution method; format: functional; settings: C2431, 18 h
Klebsiella pneumoniae = experiment: Antimicrobial activity against Klebsiella pneumoniae 2011E after 18 hrs by twofold agar dilution method; format: functional
Escherichia coli [4] = experiment: Antimicrobial activity against Escherichia coli ATCC 10536 after 18 hrs by twofold agar dilution method; format: functional; settings: ATCC 10536, 18 h
Escherichia coli [5] = experiment: Antimicrobial activity against Escherichia coli 851E after 18 hrs by twofold agar dilution method; format: functional
Serratia marcescens [6] = experiment: Antimicrobial activity against Serratia marcescens 1826E after 18 hrs by twofold agar dilution method; format: functional
[7] = system: Staphylococcus epidermidis; experiment: Antimicrobial activity against Staphylococcus epidermidis 887E after 18 hrs by twofold agar dilution method; format: functional; settings: read-out: MIC
Staphylococcus aureus [8] = experiment: Antimicrobial activity against Staphylococcus aureus 77 after 18 hrs by twofold agar dilution method; format: functional; settings: Staphylococcus aureus, 77, 18 h
Serratia marcescens [9] = experiment: Antimicrobial activity against Serratia marcescens ATCC 27117 after 18 hrs by twofold agar dilution method; format: functional; settings: ATCC 27117, 18 h
Citrobacter freundii = experiment: Antimicrobial activity against Citrobacter freundii 8090 after 18 hrs by twofold agar dilution method; format: functional; settings: Citrobacter freundii, 8090, 18 h
Enterobacter cloacae [10] = experiment: Antimicrobial activity against Enterobacter cloacae ATCC 27508 after 18 hrs by twofold agar dilution method; format: functional; settings: ATCC 27508, 18 h
Proteus vulgaris = experiment: Antimicrobial activity against Proteus vulgaris 6059 after 18 hrs by twofold agar dilution method; format: functional; settings: Proteus vulgaris, 6059, 18 h
Citrobacter koseri = experiment: Antimicrobial activity against Citrobacter diversus 2046 after 18 hrs by twofold agar dilution method; format: functional; settings: Citrobacter koseri, 2046, 18 h
Staphylococcus aureus [11] = experiment: Antimicrobial activity against Staphylococcus aureus 241 after 18 hrs by twofold agar dilution method; format: functional; settings: Staphylococcus aureus, 241, 18 h; read-out: MIC
Pseudomonas aeruginosa = experiment: Antimicrobial activity against Pseudomonas aeruginosa 6065Y after 18 hrs by twofold agar dilution method; format: functional
Staphylococcus aureus [12] = experiment: Antimicrobial activity against Staphylococcus aureus ATCC 6538P after 18 hrs by twofold agar dilution method; format: functional
Bacillus cereus = experiment: Antimicrobial activity against Bacillus cereus ATCC 27348 after 18 hrs by twofold agar dilution method; format: functional; settings: ATCC 27348, 18 h
Staphylococcus aureus [13] = experiment: Antimicrobial activity against Staphylococcus aureus ATCC 25923 after 18 hrs by twofold agar dilution method; format: functional; settings: ATCC 25923, 18 h, read-out: MIC
Staphylococcus aureus [14] = experiment: Antimicrobial activity against Staphylococcus aureus giorgio after 18 hrs by twofold agar dilution method; format: functional
Escherichia coli [15] = experiment: Antimicrobial activity against Escherichia coli ATCC 25922 after 18 hrs by twofold agar dilution method; format: functional; settings: ATCC 25922, 18 h
Enterococcus faecalis = experiment: Antimicrobial activity against Enterococcus faecalis ATCC 29212 after 18 hrs by twofold agar dilution method; format: functional; settings: ATCC 29212, 18 h
Salmonella typhimurium [16] = experiment: Antimicrobial activity against Salmonella typhimurium ATCC 13311 after 18 hrs by twofold agar dilution method; format: functional, Salmonella enterica subsp. enterica serovar Typhimurium; settings: Salmonella enterica, ATCC 13311, 18 h
[17] = system: Acinetobacter calcoaceticus; experiment: Antimicrobial activity against Acinetobacter calcoaceticus ATCC 15473 after 18 hrs by twofold agar dilution method; format: functional; settings: ATCC 15473, 18 h
Salmonella typhimurium [18] = experiment: Antimicrobial activity against Salmonella Typhimurium ATCC 14028 after 18 hrs by two-fold agar dilution method; format: functional, Salmonella enterica subsp. enterica serovar Typhimurium; settings: Salmonella enterica, ATCC 14028, 18 h
Escherichia coli [19] = experiment: Antimicrobial activity against Escherichia coli 3190Y after 18 hrs by twofold agar dilution method; format: functional
Morganella morganii = experiment: Antimicrobial activity against Morganella morganii 1375E after 18 hrs by twofold agar dilution method; format: functional

Row | SMILES | MIC (Micrococcus luteus) | MIC (Klebsiella aerogenes) | MIC (Enterobacter cloacae [1]) | MIC (Bacillus subtilis) | MIC (Klebsiella pneumoniae) | MIC (Escherichia coli [5]) | MIC (Serratia marcescens [6]) | MIC [7] | MIC (Serratia marcescens [9]) | MIC (Citrobacter freundii) | MIC (Enterobacter cloacae [10]) | MIC (Proteus vulgaris) | MIC (Citrobacter koseri) | MIC (Staphylococcus aureus [11]) | MIC (Pseudomonas aeruginosa) | MIC (Staphylococcus aureus [12]) | MIC (Staphylococcus aureus [13]) | MIC (Staphylococcus aureus [14]) | MIC (Salmonella typhimurium [16]) | MIC [17] | further results
1 | C[C@H](CO)[C@H]1CC[C@H]2[C@@H]3CC[C@H]4C[C@H](NCCCNCCCCNCCCN)CC[C@]4(C)[C@H]3CC[C@]12C.Cl.Cl.Cl.Cl | 16 µg/mL | > 32 µg/mL | > 32 µg/mL | 8 µg/mL | > 32 µg/mL | > 32 µg/mL | > 32 µg/mL | 8 µg/mL | > 32 µg/mL | > 32 µg/mL | > 32 µg/mL | > 32 µg/mL | > 32 µg/mL | 4 µg/mL | > 32 µg/mL | 4 µg/mL | 16 µg/mL | 16 µg/mL | > 32 µg/mL | > 32 µg/mL | MIC (Bacillus licheniformis; read-out: MIC): 32 µg/mL; MIC (Moraxella catarrhalis [2]; read-out: MIC): < 32 µg/mL; MIC (Moraxella catarrhalis [3]; read-out: MIC): < 32 µg/mL; MIC (Escherichia coli [4]; read-out: MIC): < 32 µg/mL; MIC (Staphylococcus aureus [8]; read-out: MIC): 16 µg/mL; MIC (Bacillus cereus; read-out: MIC): < 32 µg/mL; MIC (Escherichia coli [15]): > 32 µg/mL; MIC (Enterococcus faecalis; read-out: MIC): < 32 µg/mL; MIC (Salmonella typhimurium [18]): > 32 µg/mL; MIC (Escherichia coli [19]; read-out: MIC): < 32 µg/mL; MIC (Morganella morganii): > 32 µg/mL
2 | C[C@H](CO)[C@H]1CC[C@H]2[C@@H]3CC[C@H]4C[C@@H](NCCCNCCCCNCCCN)CC[C@]4(C)[C@H]3CC[C@]12C.Cl.Cl.Cl.Cl | 32 µg/mL | > 32 µg/mL | > 32 µg/mL | 8 µg/mL | > 32 µg/mL | > 32 µg/mL | > 32 µg/mL | 32 µg/mL | > 32 µg/mL | > 32 µg/mL | > 32 µg/mL | > 32 µg/mL | > 32 µg/mL | 8 µg/mL | > 32 µg/mL | 8 µg/mL | 32 µg/mL | 32 µg/mL | > 32 µg/mL | > 32 µg/mL | MIC (Bacillus licheniformis; read-out: MIC): 32 µg/mL; MIC (Moraxella catarrhalis [2]; read-out: MIC): < 32 µg/mL; MIC (Moraxella catarrhalis [3]; read-out: MIC): < 32 µg/mL; MIC (Escherichia coli [4]; read-out: MIC): < 32 µg/mL; MIC (Staphylococcus aureus [8]): > 32 µg/mL; MIC (Bacillus cereus; read-out: MIC): < 32 µg/mL; MIC (Escherichia coli [15]): > 32 µg/mL; MIC (Enterococcus faecalis; read-out: MIC): < 32 µg/mL; MIC (Salmonella typhimurium [18]): > 32 µg/mL; MIC (Escherichia coli [19]): > 32 µg/mL; MIC (Morganella morganii): > 32 µg/mL
3 | C[C@H](CO)[C@H]1CC[C@H]2[C@@H]3CC[C@@H]4C[C@H](NCCCNCCCCNCCCN)CC[C@]4(C)[C@H]3CC[C@]12C.Cl.Cl.Cl.Cl | 8 µg/mL | > 32 µg/mL | > 32 µg/mL | 8 µg/mL | > 32 µg/mL | > 32 µg/mL | > 32 µg/mL | 16 µg/mL | > 32 µg/mL | > 32 µg/mL | > 32 µg/mL | > 32 µg/mL | > 32 µg/mL | 8 µg/mL | > 32 µg/mL | 8 µg/mL | 32 µg/mL | 32 µg/mL | > 32 µg/mL | > 32 µg/mL | MIC (Bacillus licheniformis; read-out: MIC): < 32 µg/mL; MIC (Moraxella catarrhalis [2]; read-out: MIC): < 32 µg/mL; MIC (Moraxella catarrhalis [3]; read-out: MIC): < 32 µg/mL; MIC (Escherichia coli [4]): > 32 µg/mL; MIC (Staphylococcus aureus [8]; read-out: MIC): 8 µg/mL; MIC (Bacillus cereus): > 32 µg/mL; MIC (Escherichia coli [15]): > 32 µg/mL; MIC (Enterococcus faecalis): > 32 µg/mL; MIC (Salmonella typhimurium [18]): > 32 µg/mL; MIC (Escherichia coli [19]): > 32 µg/mL; MIC (Morganella morganii): > 32 µg/mL
4 | C[C@H](CO)[C@H]1CC[C@H]2[C@@H]3CC[C@@H]4C[C@@H](NCCCNCCCCNCCCN)CC[C@]4(C)[C@H]3CC[C@]12C.Cl.Cl.Cl.Cl | 2 µg/mL | > 32 µg/mL | > 32 µg/mL | 2 µg/mL | > 32 µg/mL | > 32 µg/mL | > 32 µg/mL | 4 µg/mL | > 32 µg/mL | > 32 µg/mL | > 32 µg/mL | > 32 µg/mL | > 32 µg/mL | 2 µg/mL | > 32 µg/mL | 1 µg/mL | 16 µg/mL | 4 µg/mL | > 32 µg/mL | > 32 µg/mL | MIC (Bacillus licheniformis): > 32 µg/mL; MIC (Moraxella catarrhalis [2]): > 32 µg/mL; MIC (Moraxella catarrhalis [3]): > 32 µg/mL; MIC (Escherichia coli [4]; read-out: MIC): 32 µg/mL; MIC (Staphylococcus aureus [8]; read-out: MIC): 2 µg/mL; MIC (Bacillus cereus; read-out: MIC): < 32 µg/mL; MIC (Escherichia coli [15]; read-out: MIC): 32 µg/mL; MIC (Enterococcus faecalis; read-out: MIC): 32 µg/mL; MIC (Salmonella typhimurium [18]): > 32 µg/mL; MIC (Escherichia coli [19]; read-out: MIC): 32 µg/mL; MIC (Morganella morganii): > 32 µg/mL
